Experimental data as given in patent US7868047B2, “Anti-inflammatory and psoriasis treatment and protein kinase inhibition by hydroxy stilbenes and novel stilbene derivatives and analogues” (Welichem Biotech Inc., priority 1999, dated 2011).
Values joined by “and” are separate entries in the source; they are usually repeats but may differ in a detail not shown here. Identical values can stand only once. Like-named read-outs stand apart in the source and are kept apart here. Each block holds one molecule with its values, some of them ahead of it.

Experiments:
human PBMC = experiment: Proliferation of PHA-stimulated human PBMC (MTT); format: cell-based; settings: for IC50: MTT after 48 hours
Protocol: (§1) (a). Effect on proliferation and IFN-γ production of human peripheral blood mononuclear cells (PBMC) stimulated by phytochemagglutinin (PHA).
(§2) Experiment: PBMC were cultured with PHA and cultured with titrated concentrations of compounds or solvent, or media alone using standard cell culture techniques. The MTT assay was performed after 48 hours of culture. Supernatants were collected after 48 hours of culture and levels of IFN-γ were assayed by ELISA.

Human keratinocytes = experiment: Human keratinocyte proliferation (MTT); format: cell-based; settings: for IC50: Homo sapiens, Keratinocyte, in the presence of IFN-γ, MTT after 48 hours
Protocol: Human keratinocytes were cultured in the presence of IFN-γ and titrated concentrations of drug or the vehicle. The MTT assay was performed after 48 hours of culture.

IFN-γ = IFN-γ production by PHA-stimulated human PBMC (ELISA); format: cell-based; settings: for IC50: PHA-stimulated human PBMC, supernatant after 48 hours, ELISA
Protocol: as §1, §2

TNF-α = experiment: Endotoxemia mouse model, serum TNF-α after LPS; format: in vivo; settings: for TNF-α levels in mice blood induced by LPS: P<0.05; for TNF-α: serum 150 min after LPS 40 mg/kg IP, compounds 25 mg/kg then 3 x 12.5 mg/kg IP (dexamethasone 0.4 then 3 x 0.2 mg/kg)
Text: The in vivo endotoxemia model used in these studies represents a mouse showing the early inflammatory response. Such severe infection can be caused by Gram negative bacteria may lead to the development of septic shock. This toxicity is caused by the lipopolysaccharide (LPS) component of the bacterial cell wall, and injection of LPS into mice can mimic the physiological response typical of the septic shock syndrome. LPS-mediated toxicity is due to the release of cytokines such as TNF-α, IL-1 and IFN-γ by activated macrophages, and the degree of toxicity can be measured by the level of these cytokines in the blood.
Experiment: Test compounds were dissolved and formulated in 50% PEG-400 in water. Female Balb/c mice (˜20 g) were first injected separately intraperitoneally (IP) with 25 mg/kg of each test compound, then challenged by injection with 40 mg/kg lipopolysaccharide (LPS) (IP) 30 minutes later. One drug injection with 12.5 mg/kg of test compound was done at the same time as (LPS challenge and two subsequent sequential injections at 30 minutes intervals. Positive control of dexamethasone was administered in a similar manner starting at 0.4 mg/kg and subsequently 0.2 mg/kg for three additional injections. Mice were sacrificed and blood collected by cardiac puncture 150 minutes after LPS challenge. The serum TNF-α levels were determined by ELISA. Each test group was comprised of six mice. Group of mice injected with the vehicle alone was used as negative control.

DSS-induced IBD = experiment: DSS (2%) IBD mouse model, preventive experiment; format: in vivo; settings: 500 mg/kg/day oral with 2% DSS, day 7
Protocol: To assess the in vivo efficacy for preventive and therapeutic activities of these compounds on IBD, two experiments were designed and tested using the dextran sulfate sodium (DSS) experimental mouse model for human IBD. For the preventive experiment, compounds 9A and 39B were simultaneously administrated orally with 2% DSS at the dose of 500 mg/kg/day. Vehicle alone and glucocorticoid (dexamethasone 20 mg/kg/day) were used as controls. At day 7, mice were sacrificed, examined for stool appearance, diarrhea and colon macroscopic damage including ulceration, inflammation and adhesion. Colon samples were also taken and fixed in 10% formalin for histological assessment of architecture, ulceration, inflammation and serosal damage.

TPA-induced ear edema = TPA-induced ear edema model; format: in vivo, mouse; settings: TPA 0.01%, ear thickness 6 hours after TPA
Protocol: Experiment: Three representative compounds, 5-(2-phenylethenyl)-2-1-propyl-1,3-benzenediol, as previously reported, a closely related stilbene derivative (WO 0142231) and compound 39B, a novel compound of the current invention, were assayed against the edema on female mice (Balb/c) aged 10-12 weeks, using 0.01% Calcitriol (a commercial standard) as a positive control. Phorbol-12-myristate-13-acetate (TPA) was used as the edema inducer. TPA and the test compounds were all dissolved in 100% ethanol and 20 μl applied on the right ear of the mouse with six mice per group. The TPA concentration used was 0.01% (w/v). Ear thickness was measured 6 hours after TPA treatment to determine if edema was decreased. In each experiment replicated groups of TPA treated mice were treated with either 5-(2-phenylethenyl)-2-1-propyl-1,3-benzenediol, Calcitriol, compound 39B or only ethanol, and the level of inhibition was obtained by measuring the thickness of the ear and expressing the difference in thickness of the treated ear from that of the ethanol treated ear, as a percentage.

[1] = tested on: human white blood cells (WBC); experiment: Migration of human white blood cells induced by leukotriene B4 (agarose plate); format: cell-based; settings: for % Migration: towards LTB4, 5 h
Protocol: Experiment: WBC collected from donors was mixed with equal volume of 3% dextran (in 0.15M NaCl). The red blood cells were sedimented (45 minutes, room temperature) and removed. Any remaining red blood cells in the plasma were removed by adding 150 mM of Tris-NH4Cl. The leukocyte-rich plasma was washed twice in Hanks balanced salts solution containing 20 mM HEPES. The WBC was then transferred to RPMI-1640 medium and adjusted to a density of 5×10^7 cells/ml. An agarose plate assay system (Nelson et al. 1978) was used to measure the WBC migration. Briefly, a 0.8% agarose solution was prepared with complete RPMI-1640 cell culture medium. About 3.5 ml of this agarose solution was transferred to a glass slide before it solidified. Wells were made on the slide in a 3×6 array fashion (02 mm, inter-well distance 3 mm) once the agarose had solidified. LTB4 was dissolved in anhydrous ethanol to 104 ng/ml and further diluted with the RPMI-1640 medium to 10 ng/ml for the test. Compound 39B was dissolved in DMSO, diluted with RPMI-1640 to 10^3 μg/ml and tested at the following concentrations: 100, 10, 1, 0.1 and 0.01 μg/ml. Ten microlitres of cell suspension with different concentrations of compound 39B was added to each well of the center row of the three rows of wells. The same volume of LTB4 in RPMI-1640 medium or the medium alone was added to wells in the other rows and served as controls. After 5 h incubation (5% CO2, 37° C.) the test slides were fixed with 100% methanol (30 min) and dried at 4° C. (overnight). The slides were then examined microscopically. The migration index was defined as the average distances that cells migrated towards the positive LTB4 well divided by that of spontaneous migration. The percentage migration was compared between treatment and the non-drug control. The dose-effect relationship was determined by plotting the percentage chemotaxis vs concentration for IC50 values.

VEGF = VEGF protein expression of keratinocytes induced by rhTGF-α (ELISA); format: cell-based, human; settings: for VEGF: supernatant, rhTGF-α 100 ng/ml, 24 h
Protocol: Experiment: Compound 39B was dissolved in DMSO, diluted with keratinocyte-serum-free medium (KC-SFM) to 10^3 μg/ml, further diluted with the culture medium and tested at the following concentrations: 10, 1, 0.1 and 0.01 μg/ml. Prime cultures of keratinocytes were obtained from a commercial source and maintained with KC-SFM at a cell density of 10^6/ml. In the test, cells were cultured in 24-well plates and incubated at 37° C. in 5% CO2 first for 4 h, and then treated with rhTGF-α (final concentration 100 ng/ml) and the test compound at different concentrations (0.01-10 μg/ml). Medium without test compound was the negative control. The culture supernatant from each well was separately collected after an additional 24 h incubation and centrifuged at 2000 rpm for 5 minutes before measuring the VEGF concentration. VEGF concentration in the supernatant in each well was calculated based on measurements taken using an ELISA kit, according to the manufacturer's instructions.

[2] = tested on: acute colon inflammation induced by 5% DSS; experiment: DSS (5%) acute colon inflammation mouse model, therapeutic experiment; format: in vivo
Text: To assess the in vivo efficacy for preventive and therapeutic activities of these compounds on IBD, two experiments were designed and tested using the dextran sulfate sodium (DSS) experimental mouse model for human IBD.
For the therapeutic experiment a further experiment was done to test different doses of 9A on severe, acute intestinal inflammation in mice induced by a high dose of DSS (5%). In this experiment, drug treatment started from day 3 post DSS induction when disease symptom was established. 9A (200 mg/kg or 100 mg/kg) was administered through oral […] once daily and a commercial drug, sulfasalazine (SASP, 100 mg/kg/day) was used as positive control. Experiment was terminated at day 7 and the efficacy was assessed.

[3] = Homo sapiens, PBMC, PHA-stimulated, read-out: IC50 against human PBMC proliferation
[4] = Homo sapiens, PBMC, PHA-stimulated, read-out: IC50 against human PBMC proliferation (unit inferred)
[5] = PHA-stimulated, read-out: IC50 against human PBMC proliferation

IC50 (IFN-γ): 2.55 µM
SMILES: CCCc1c(O)cc(C=Cc2ccc(O)cc2)cc1O [Compound 13B, 5-[2-(4-Hydroxyphenyl)ethenyl]-2-1-propyl-1,3-benzenediol]
potency in inhibiting PBMC proliferation relative to resveratrol (human PBMC): 20 times
IC50 (human PBMC; [3]): 2.97 µM
IC50 (human PBMC; [4]): 2.97 µM
potency on keratinocyte proliferation relative to resveratrol (Human keratinocytes): more than 10 times
IC50 (Human keratinocytes): 4.3 µM
potency in inhibiting IFN-γ production relative to resveratrol (IFN-γ): more than 15 times

IC50 (IFN-γ): 39.2 µM
SMILES: Oc1ccc(C=Cc2cc(O)cc(O)c2)cc1 [Resveratrol, resveratrol, reference compound]
IC50 (human PBMC; [3]): > 50 µM
IC50 (human PBMC; [4]): > 50 µM
IC50 against human PBMC proliferation (human PBMC; PHA-stimulated, 50 the highest concentration tested): > 50 µM
IC50 (Human keratinocytes): > 50 µM

IC50 (IFN-γ): 3.8 µM
SMILES: CCCc1c(O)cc(C=Cc2ccccc2F)cc1O [Compound 37B, 5-[2-(2-Fluorophenyl)ethenyl]-2-1-propyl-1,3-benzenediol]
IC50 (human PBMC; [3]): 5.62 µM
TNF-α levels in mice blood induced by LPS (TNF-α): decreased significantly
TNF-α (TNF-α): 638.9 ± 273.0 pg/mL

IC50 (IFN-γ): 4.16 µM
SMILES: CC(C)c1c(O)cc(C=Cc2ccc(F)cc2)cc1O [Compound 39B]
IC50 (human PBMC; [5]): 7.36 µM
TNF-α levels in mice blood induced by LPS (TNF-α): decreased significantly
TNF-α (TNF-α): 601.6 ± 211.9 pg/mL
macroscopic and microscopic diseases scores (DSS-induced IBD): significantly decreased
% edema inhibition (TPA-induced ear edema; 0.3% single topical): 85% and 85.2%
inhibition of migration of WBC towards LTB4 [1]: dose-dependent manner
% Migration ([1]; 0.32 μM): 88.46 ± 18.6%
% Migration ([1]; 1.6 μM): 83.85 ± 15.9%
% Migration ([1]; 8 μM): 58.46 ± 4.3%
% Migration ([1]; 40 μM): 13.07 ± 5.8%
VEGF (VEGF; 1.6 μM): 34.4 ± 2.0 pg/mL
VEGF (VEGF; 8 μM): 33.6 ± 1.8 pg/mL
decrease of VEGF protein concentration (VEGF; 40 μM, 24-h treatment): 100%
VEGF (VEGF; 40 μM): 0 ± 0 pg/mL

melting point: 143 to 146 °C
SMILES: CCc1c(O)cc(/C=C/c2ccccc2)cc1O [Compound 16A-a, 3,5-Dihydroxy-4-ethyl-trans-stilbene]

SMILES: C[C@@H]1C[C@H]2[C@@H]3CCC4=CC(=O)C=C[C@]4(C)[C@@]3(F)[C@@H](O)C[C@]2(C)[C@@]1(O)C(=O)CO [Dexamethasone, dexamethasone, reference compound]
TNF-α (TNF-α): 281.3 ± 67.2 pg/mL

melting point: 125 to 128 °C
SMILES: CCCCCCCCCCCCCCc1c(O)cc(/C=C/c2ccccc2)cc1O [Compound 16A-b, 3,5-Dihydroxy-4-myristyl-trans-stilbene]

IC50 (IFN-γ): 4.29 µM
SMILES: CC(C)c1c(O)cc(C=Cc2cccc(F)c2)cc1O [Compound 38B, 5-[2-(3-Fluorophenyl)ethenyl]-2-1-propylphenyl-1,3-diol]
IC50 (human PBMC; [5]): 9.91 µM

SMILES: O=C(O)c1cc(/N=N/c2ccc(S(=O)(=O)Nc3ccccn3)cc2)ccc1O [SASP, sulfasalazine, reference compound]
Bleeding score ([2]; 100 mg/kg oral daily, day seven, mean ± SEM, n = 9, 1 = normal, 2 = bloody stool, 4 = gross bleeding): 3.6 ± 0.24
Diarrheal score ([2]; 100 mg/kg oral daily, day seven, mean ± SEM, n = 9, 1 = normal, 2 = loose stools, 4 = diarrhea): 2.8 ± 0.49
survival rate vs control treatment ([2]; 5% DSS, treatment from day 3): significantly higher survival rate

melting point: 149 to 152 °C
SMILES: COc1cc(/C=C/c2ccccc2)cc(OC)c1Br [Compound 14A, 3,5-Dimethoxy-4-bromo-trans-stilbene]

SMILES: C=C1/C(=C\C=C2/CCC[C@]3(C)[C@@H]([C@H](C)CCCC(C)(C)O)CC[C@@H]23)C[C@@H](O)C[C@@H]1O [Calcitriol, reference compound]
% edema inhibition (TPA-induced ear edema; 0.01% single topical): 31% and 31.2%

melting point: 70 to 73 °C
SMILES: CCc1c(OC)cc(/C=C/c2ccccc2)cc1OC [Compound 15A-a, 3,5-Dimethoxy-4-ethyl-trans-stilbene]

melting point: 68 to 70 °C
SMILES: CCCCCCCCCCCCCCc1c(OC)cc(/C=C/c2ccccc2)cc1OC [Compound 15A-b, 3,5-Dimethoxy-4-myristyl-trans-stilbene]

melting point: 64 to 66 °C
SMILES: COc1cc(/C=C/c2ccccc2)cc(OC)c1C(C)C [Compound 8A, 3,5-Dimethoxy-4-isopropyl-trans-stilbene]
